{"source": "PubChem BioAssay (NCI)", "note": "“And” between values parts separate entries of the source, which are not always exact repeats. Equal entries are not always repeated.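 How tested: cells in 96-well plates exposed to compound for 48 hours at five concentrations. GI50 = concentration required for 50% inhibition of growth. TGI is the concentration that stops growth completely.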"}
{"system": "MDA-MB-468 breast", "experiment": "inhibition of tumour cell growth, NCI panel, 48 h"}
{"molecule": "CC[C@H](NC(=O)[C@H](CS(=O)(=O)CC1CC1)N[C@@H](c1ccc(F)cc1)C(F)(F)F)C(=O)C(=O)NC1CC1", "GI50": "49.9 µM", "TGI": "> 100 µM"}
{"molecule": "CN(C)CCCOc1c2ccc(Cl)cc2nc2c1oc1ccc(Cl)cc12", "GI50": "2.12 µM", "TGI": "7.03 µM"}
{"molecule": "COc1cccc(C2=C(c3cn(C)c4cccc(OC)c34)C(=O)NC2=O)c1", "GI50": "6.88 µM", "TGI": "> 25 µM"}
{"molecule": "COc1cc([C@@H]2c3cc4c(cc3C(OC3O[C@@H]5COC(C)O[C@H]5[C@H](O)[C@H]3O)C3COC(=O)[C@@H]32)OCO4)cc(OC)c1O", "note": "(stereo not given in full)", "GI50": "1.1 µM", "TGI": "4.5 µM"}
{"molecule": "O=C(Nc1ccc(I)cc1F)c1cc(I)ccc1O", "GI50": "0.808 µM", "TGI": "2.46 µM"}
{"molecule": "CO[C@H](C(=O)O)[C@@H]1Cc2cc3cc(OC4CC(OC5CC(O)C(O)C(C)O5)C(O)C(C)O4)c(C)c(O)c3c(O)c2C(=O)[C@H]1OC1CC(OC2CC(OC3CC(C)(O)C(O)C(C)O3)C(O)C(C)O2)C(O)C(C)O1", "note": "(stereo not given in full)", "GI50": "0.159 µM", "TGI": "0.885 µM"}
{"molecule": "CCOc1cc(C(C)(C)C)ccc1C1=N[C@@](C)(c2ccc(Cl)cc2)[C@@](C)(c2ccc(Cl)cc2)N1C(=O)N1CCN(CCS(C)(=O)=O)CC1", "GI50": "2.1 µM", "TGI": "6.34 µM"}
{"molecule": "COC(=O)[C@]12CC[C@@H](C)[C@H](C)[C@@H]1C1=CC[C@@H]3[C@@]4(C)CC(=O)[C@H](OC(=O)c5ccco5)[C@@]5(C)COC(=C45)C[C@@]3(C)[C@]1(C)CC2", "GI50": "0.42 µM", "TGI": "> 100 µM"}
{"molecule": "O=[As]c1ccc(C(=O)c2ccc(Oc3ccccc3)cc2)cc1", "note": "(stereo not given)", "GI50": "0.0266 µM", "TGI": "0.101 µM"}
{"molecule": "OC(COc1cccc2ccccc12)CN1CCN(c2ccccc2Cl)CC1", "note": "(stereo not given)", "GI50": "15.3 µM", "TGI": "30.1 µM"}
{"molecule": "CCCCCc1c(C)[nH]c(/C=C2\\N=C(c3ccc[nH]3)C=C2OCc2ccccc2)c1C", "GI50": "0.0969 µM and 0.0235 µM", "TGI": "0.764 µM and 0.268 µM"}
{"molecule": "CC(C)(C)Nc1nc2c(OCCc3ccccc3)cccn2c1-c1cccc(F)c1", "GI50": "3.51 µM", "TGI": "22.9 µM"}
{"molecule": "Nc1c(C(=O)Nc2cccc(Br)c2)sc2nc3c(cc12)C(O)CCC3", "note": "(stereo not given)", "GI50": "0.237 µM", "TGI": "31.7 µM"}
{"molecule": "O=[N+]([O-])c1cc(F)c2cccnc2c1O", "GI50": "14.7 µM", "TGI": "47.2 µM"}
{"molecule": "Cn1ncc(-c2ccc3c(=O)[nH]nc(CN)c3c2)c1-c1c(F)cc2ccccc2c1C#N", "GI50": "7.02 µM", "TGI": "21.1 µM"}
{"molecule": "COc1cc(-c2nn(-c3ccc(NC(=O)c4cc(Cl)cc(Cl)c4)cc3)cc2-c2ccncc2)ccc1Cl", "GI50": "> 100 µM", "TGI": "> 100 µM"}
{"molecule": "CC(C)(C)C(=O)OCc1nc2cc3c(cc2c(=O)[nH]1)CCC3=O", "GI50": "> 100 µM", "TGI": "> 100 µM"}
{"molecule": "CCCn1c(N)c(C(=O)CNc2ccc(I)cc2)c(=O)[nH]c1=O", "TGI": "> 100 µM"}
{"molecule": "CCCCCCNC(=O)Oc1ccc(/C(=C(\\C)c2ccccc2)c2ccc(OCCN(CC)CC)cc2)cc1", "GI50": "2.92 µM", "TGI": "9.72 µM"}
{"molecule": "O=C(O)C(=O)CBr", "GI50": "> 48.3 µM and 16.9 µM", "TGI": "> 72.4 µM and 33.3 µM"}
{"molecule": "Cc1c(C(=O)O[C@H]2[C@@H]3[C@H](C)CC[C@H]3[C@]3(C)O[C@@]2(C2CCCCC2)C[C@H]3OC(=O)CO)ccc2ccccc12", "GI50": "8.12 µM", "TGI": "16.1 µM"}
{"molecule": "ClCC#CCSc1ncnc2c1ncn2CC#CCCl", "GI50": "1.43 µM", "TGI": "3.2 µM"}
{"molecule": "CC(=O)N1CCN(CCOc2ccc(C3CCN(C4=Nn5c(nnc5C(F)(F)F)CC4)CC3)cc2)CC1", "GI50": "3.72 µM", "TGI": "61.1 µM"}
{"molecule": "CCCCOc1ccc(/C=N/Nc2cc(C)nc3ccc(Cl)cc23)cc1", "GI50": "1.53 µM", "TGI": "2.97 µM"}
{"molecule": "CN(C)CCNc1nc2ccccc2c2c(=O)c3ccccc3sc12", "GI50": "1.45 µM", "TGI": "3.31 µM"}
{"molecule": "C=CCCC(=O)N1C=CC(=O)[C@H](O)[C@@H]1/C=C/c1ccccc1", "GI50": "5.12 µM", "TGI": "22.3 µM"}
{"molecule": "c1ccc2nc(OCCN3CC3)ccc2c1", "GI50": "2.77 µM", "TGI": "7.87 µM"}
{"molecule": "Oc1c(CN2CCOCC2)cc(COCc2ccccc2)c2cccnc12", "GI50": "2.39 µM", "TGI": "7.19 µM"}
{"molecule": "Oc1ccc(Cl)cc1-c1cc(-c2ccc(F)cc2)n[nH]1", "GI50": "1.35 µM", "TGI": "5.35 µM"}
{"molecule": "CC1(C)[C@@H](OC(N)=O)C=C[C@]2(C=O)[C@H]3CC[C@]4(C)[C@@H](c5ccc(=O)oc5)[C@@H](Cl)C[C@]4(O)C3=CC[C@@H]12", "GI50": "0.00613 µM", "TGI": "0.0161 µM"}
{"molecule": "COc1ccc2[nH]c(O)c(/C=c3/cc4c(c(-c5ccc(F)cc5)n3)=Nc3ccccc3-4)c2c1", "GI50": "2.22 µM", "TGI": "5.47 µM"}
{"molecule": "COc1cccc(-c2cc(=O)c3cc(Cl)cnc3[nH]2)c1", "GI50": "0.886 µM", "TGI": "> 100 µM"}
{"molecule": "C#Cc1cc2c(N)c(C(=O)c3cc(OC)c(OC)c(OC)c3)[nH]c2cc1OC", "GI50": "0.497 µM", "TGI": "43.2 µM"}
{"molecule": "CCOC(=O)c1ccccc1-c1c2ccc(=[N+](C)C)cc-2oc2cc(N(C)C)ccc12", "GI50": "0.0469 µM", "TGI": "0.41 µM"}
{"molecule": "CN1CCN(CCOc2ccc(-c3cnc4c(-c5ccc(F)cc5)cnn4c3)cc2)CC1", "GI50": "1.54 µM", "TGI": "3.19 µM"}
{"molecule": "CC(=O)C1(O)Cc2c(O)c3c(c(O)c2C(OC2CC(N)C(O)C(C)O2)C1)C(=O)c1ccccc1C3=O", "note": "(stereo not given)", "GI50": "0.0119 µM", "TGI": "0.0398 µM"}
{"molecule": "COc1ccc(-c2c(N)n[nH]c2-c2cc(OC)c(OC)c(OC)c2)cc1", "GI50": "0.0946 µM", "TGI": "2.87 µM"}
{"molecule": "O=C(CCl)Nc1cc(O)c2c(c1)C(=O)c1cccc(O)c1C2=O", "GI50": "1.04 µM", "TGI": "2.86 µM"}
